Assay results: ChEMBL document CHEMBL3108708, “Discovery of Tertiary Amine and Indole Derivatives as Potent RORγt Inverse Agonists” (ACS Med Chem Lett, 2014)
pEC50, pIC50: −log10 of the molar value.

What was measured:
[1] = molecular target: T1, Nuclear receptor ROR-gamma (Mus musculus, UniProt P51450); assay: Inverse agonist activity at RORgammat in mouse Th17 cells assessed as effect on cell differentiation measured as IL-17 level after 3 days by ELISA; assay type: cell-based
T1 sequence (P51450 whole entry): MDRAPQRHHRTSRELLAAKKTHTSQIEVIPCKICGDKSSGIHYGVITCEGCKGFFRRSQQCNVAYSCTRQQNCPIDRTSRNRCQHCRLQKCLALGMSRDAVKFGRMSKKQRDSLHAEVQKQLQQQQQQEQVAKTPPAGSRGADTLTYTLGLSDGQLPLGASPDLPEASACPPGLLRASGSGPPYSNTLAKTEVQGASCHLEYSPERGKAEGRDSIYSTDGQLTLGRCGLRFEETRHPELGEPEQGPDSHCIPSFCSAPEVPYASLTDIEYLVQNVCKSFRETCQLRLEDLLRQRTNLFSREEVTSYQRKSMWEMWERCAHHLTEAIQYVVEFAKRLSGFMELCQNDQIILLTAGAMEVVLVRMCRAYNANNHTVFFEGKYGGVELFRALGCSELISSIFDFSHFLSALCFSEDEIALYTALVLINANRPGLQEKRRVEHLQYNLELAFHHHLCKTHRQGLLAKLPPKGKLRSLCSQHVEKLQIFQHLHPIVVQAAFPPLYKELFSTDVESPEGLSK

[2] = molecular target: T2, Nuclear receptor ROR-gamma (Homo sapiens, UniProt P51449)
T2 sequence (P51449 whole entry): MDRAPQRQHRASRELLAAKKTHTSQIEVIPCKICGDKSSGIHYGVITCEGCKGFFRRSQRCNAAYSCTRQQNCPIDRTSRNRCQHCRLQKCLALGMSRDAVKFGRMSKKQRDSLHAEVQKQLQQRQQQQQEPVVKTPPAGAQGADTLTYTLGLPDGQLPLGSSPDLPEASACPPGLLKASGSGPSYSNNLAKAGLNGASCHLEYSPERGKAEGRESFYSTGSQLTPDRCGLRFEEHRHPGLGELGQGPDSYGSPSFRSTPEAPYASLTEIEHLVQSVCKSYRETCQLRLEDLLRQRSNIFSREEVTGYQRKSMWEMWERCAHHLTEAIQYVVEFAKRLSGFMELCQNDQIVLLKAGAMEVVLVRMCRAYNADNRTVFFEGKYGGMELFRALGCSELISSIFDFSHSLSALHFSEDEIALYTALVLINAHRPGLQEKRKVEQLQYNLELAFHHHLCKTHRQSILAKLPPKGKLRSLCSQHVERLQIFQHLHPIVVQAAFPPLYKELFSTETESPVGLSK
Description: Inverse agonist activity at biotinylated human RORgammat LBD expressed in Escherichia coli BL21 assessed as inhibition of SRC1 recruitment after 1 hr by FRET assay in presence of N-(2-chloro-6-fluorobenzyl)-N-((2'-methoxy-[1,1'-biphenyl]-4-yl)methyl)benzenesulfonamide

[3] = molecular target: T2, Nuclear receptor ROR-gamma; remark: listed apart in the source
Description: Inverse agonist activity at biotinylated human RORgammat expressed in Escherichia coli BL21 assessed as effect on recruitment of SRC1/2 after 1 hr by dual-FRET assay

[4] = molecular target: T3, Nuclear receptor ROR-gamma (Homo sapiens) (UniProt P51449)
T3 sequence (whole entry): T2 sequence (P51449 whole entry)
Description: Binding affinity to human RORgammat expressed in Escherichia coli BL21 assessed as melting temperature by thermal shift assay

| pIC50 [1] | Structure (SMILES) | further results |
| --- | --- | --- |
| 6.13 | CCCN(CCc1ccc(C(F)(F)F)cc1)c1ccc(NC(=O)Cc2ccc(S(=O)(=O)CC)cc2)cc1 | – |
| < 5.00 | CCS(=O)(=O)c1ccc(CC(=O)Nc2ccc(CNCc3ccc(C(F)(F)F)cc3)cc2)cc1 | – |
| 5.99 | CCS(=O)(=O)c1ccc(CC(=O)Nc2ccc(NCCc3ccc(C(F)(F)F)cc3)c(Cl)c2)cc1 | – |
| 8.05 | CCS(=O)(=O)c1ccc(CC(=O)Nc2ccc3c(ccn3CCc3ccc(Cl)cc3Cl)c2)cc1 | – |
| 6.79 | CCS(=O)(=O)c1ccc(CC(=O)Nc2ccc3c(ccn3CCc3ccc(Cl)cc3)c2)cc1 | – |
| 6.34 | CCS(=O)(=O)c1ccc(CC(=O)Nc2ccc3c(ccn3CCc3ccc(C#N)cc3)c2)cc1 | – |
| – | CCCN(Cc1ccc(C)cc1)Cc1ccc(NC(=O)Cc2ccc(S(=O)(=O)CC)cc2)cc1 | pIC50 [2]: < 4.60; pEC50 [3]: 7.60 |
| 7.40 | CCS(=O)(=O)c1ccc(CC(=O)Nc2ccc3c(ccn3CCc3ccc(Cl)c(Cl)c3)c2)cc1 | – |
| 7.15 | CCS(=O)(=O)c1ccc(CC(=O)Nc2ccc3c(ccn3CCc3ccc(OC(C)C)cc3)c2)cc1 | – |
| 6.49 | CCCN(Cc1ccc(NC(=O)Cc2ccc(S(=O)(=O)CC)cc2)cc1)Cc1ccc(C(F)(F)F)cc1 | – |
| 7.51 | CCS(=O)(=O)c1ccc(CC(=O)Nc2ccc3c(ccn3CCc3ccc(C(F)(F)F)cc3)c2)cc1 | – |
| – | CCS(=O)(=O)c1ccc(CC(=O)Nc2nc(-c3cc(Cl)ccc3Cl)cs2)cc1 | pIC50 [2]: 6.00; pIC50 [3]: 6.00; ΔTm [4]: 7.1 °C |
